The source made the active and inactive calls. The rule behind the calls is not given here.
Assays:
CCRF-CEM = assay: Cytotoxicity against human CEM cells assessed as growth inhibition after 72 hrs by MTT assay; assay type: functional, cell-based
HepG2 = assay: Cytotoxicity against human HepG2 cells assessed as growth inhibition after 72 hrs by MTT assay; assay type: functional, cell-based; details: HepG2, 72 h
Bel-7402 [1] = assay: Cytotoxicity against human Bel7402 cells assessed as growth inhibition after 72 hrs by MTT assay; assay type: functional, cell-based; details: Bel-7402, 72 h
SMMC-7721 = assay: Cytotoxicity against human SMMC7721 cells assessed as growth inhibition after 72 hrs by MTT assay; assay type: functional, cell-based; details: SMMC-7721, 72 h
SW1990 = assay: Cytotoxicity against human SW1990 cells assessed as growth inhibition after 72 hrs by MTT assay; assay type: functional, cell-based; details: SW1990, 72 h
MCF7 [2] = assay: Cytotoxicity against human MCF7 cells assessed as growth inhibition after 72 hrs by MTT assay; assay type: functional, cell-based; details: MCF7, 72 h
HCT-116 = assay: Cytotoxicity against human HCT116 cells assessed as growth inhibition after 72 hrs by MTT assay; assay type: functional, cell-based; details: HCT-116, 72 h
MCF7 [3] = assay: Cell cycle arrest in human MCF7 cells assessed as accumulation at G2/M phase after 24 hrs by propidium iodide staining-based flow cytometric analysis; assay type: functional
Bel-7402 [4] = assay: Ratio of combretastatin A-4 IC50 to compound IC50 for human Bel7402 cells; assay type: functional
MCF7 [5] = assay: Ratio of combretastatin A-4 IC50 to compound IC50 for human MCF7 cells; assay type: functional
MCF7 [6] = assay: Cell cycle arrest in human MCF7 cells assessed as accumulation at G2/M phase at 0.02 uM after 24 hrs by propidium iodide staining-based flow cytometric analysis; assay type: functional

## COc1ccc(-c2c(-c3cc(OC)c(OC)c(OC)c3)c(=O)c2=O)cc1
CCRF-CEM
  IC50: 16 nM

## COc1cc(-c2c(-c3ccc4[nH]ccc4c3)c(=O)c2=O)cc(OC)c1OC
HepG2
  IC50: 6 nM
CCRF-CEM
  IC50: 15.4 nM
Bel-7402 [1]
  IC50: 1500 nM
SMMC-7721
  IC50: 646 nM

## COc1ccc(-c2c(-c3cc(OC)c(OC)c(OC)c3)c(=O)c2=O)cc1F
HepG2
  IC50: 105 nM
SW1990
  IC50: 27 nM
MCF7 [2]
  IC50: 5 nM
CCRF-CEM
  IC50: 11.5 nM
HCT-116
  IC50: 81 nM
Bel-7402 [1]
  IC50: 13 nM
SMMC-7721
  IC50: 176 nM

## COc1ccc(-c2c(-c3c(OC)cc(OC)cc3OC)c(=O)c2=O)cc1
CCRF-CEM
  IC50: 850 nM

## COc1ccc(-c2c(-c3cc(OC)c(OC)c(OC)c3)c(=O)c2=O)cc1[N+](=O)[O-]
CCRF-CEM
  IC50: 12200 nM

## COc1ccc(-c2c(-c3cc(OC)c(OC)c(OC)c3)c(=O)c2=O)cc1OC
CCRF-CEM
  IC50: 210 nM

## COc1ccc(-c2c(-c3cc(OC)c(OC)c(OC)c3)c(=O)c2=O)c(OC)c1
CCRF-CEM
  IC50: 1770 nM

## COc1ccc(-c2c(-c3ccc(OC)cc3)c(=O)c2=O)cc1
CCRF-CEM
  IC50: > 20000 nM

## COc1ccc(-c2c(-c3ccc(OC)c(OC)c3)c(=O)c2=O)cc1
CCRF-CEM
  IC50: 12700 nM

## COc1ccc(/C=C\c2cc(OC)c(OC)c(OC)c2)cc1O [COMBRETASTATIN A4]
MCF7 [2]
  IC50: 29 nM
CCRF-CEM
  IC50: 1.6 nM

## COc1ccc(-c2c(-c3ccc(OC)c(OC)c3OC)c(=O)c2=O)cc1
CCRF-CEM
  IC50: 2480 nM

## COc1cc(-c2c(-c3ccc4cc[nH]c4c3)c(=O)c2=O)cc(OC)c1OC
HepG2
  IC50: 6 nM
CCRF-CEM
  IC50: 6.6 nM
Bel-7402 [1]
  IC50: 3620 nM
SMMC-7721
  IC50: 2540 nM

## COc1ccc(-c2c(-c3cc(OC)c(OC)c(OC)c3)c(=O)c2=O)cc1N
HepG2
  IC50: 5 nM
MCF7 [3]
  Activity: Active
SW1990
  IC50: 1770 nM
MCF7 [2]
  IC50: 164 nM
CCRF-CEM
  IC50: 1.4 nM
Bel-7402 [4]
  Ratio IC50: 122
HCT-116
  IC50: 5 nM
Bel-7402 [1]
  IC50: 14 nM
SMMC-7721
  IC50: 190 nM

## COc1cc(-c2c(-c3ccccc3)c(=O)c2=O)cc(OC)c1OC
CCRF-CEM
  IC50: 16100 nM

## COc1ccc(-c2c(-c3ccc(OC)cc3OC)c(=O)c2=O)cc1
CCRF-CEM
  IC50: 1510 nM

## COc1ccc(-c2c(-c3cc(OC)c(OC)c(OC)c3)c(=O)c2=O)cc1O
HepG2
  IC50: 14 nM
SW1990
  IC50: 245 nM
MCF7 [2]
  IC50: 6 nM
CCRF-CEM
  IC50: 1.7 nM
Bel-7402 [4]
  Ratio IC50: 5
MCF7 [5]
  Ratio IC50: 5
MCF7 [6]
  Activity: Active
HCT-116
  IC50: 5 nM
Bel-7402 [1]
  IC50: 309 nM
SMMC-7721
  IC50: 1520 nM

## COc1cc(-c2c(-c3cc(OC)c(OC)c(OC)c3)c(=O)c2=O)cc(OC)c1OC
CCRF-CEM
  IC50: > 20000 nM

## COc1ccc(-c2c(-c3cc(OC)c(OC)c(OC)c3)c(=O)c2=O)cc1OC(C)=O
CCRF-CEM
  IC50: 1.8 nM

## COc1ccc(-c2c(-c3cc(OC)c(OC)c(OC)c3)c(=O)c2=O)cc1Cl
CCRF-CEM
  IC50: 136 nM
